Assay [1] deals with Vancomycin-sensitive E. faecium (ATCC 19634). In words: MIC, micro-dilution broth, VSEm. The assay is classed as cell-based. The conditions noted are these: Enterococcus faecium, ATCC19634. On the procedure:
Test compounds were assayed in a micro-dilution broth format. Stock solutions were made by serially diluting the compounds using autoclaved millipore water or broth media. The antibacterial activity of the compounds was determined against gram positive bactreia like methicillin-resistant S. aureus (MRSA), vancomycin-intermediate-resistant S. aureus (VISA), vancomycin-sensitive E. faecium (VSE), vancomycin-resistant E. faecalis and vancomycin-resistant E. faecium (VRE). Antibacterial activity of dipicolyl-vancomycin conjugate conjugate (4) in combination with meropemem was determined against gram-negative bacteria such as K. pneumoniae ATCC BAA2146, clinical isolates K. pneumoniae R3949, K. pneumoniae R3934, E. coli R3336 and A. baumanii R676. Bacteria, to be tested, were grown for about 10 h in the suitable media, MRSA, VISA and gram negative bacteria were grown in Yeast-dextrose broth (about 1 g of beef extract, about 2 g of yeast extract, about 5 g of peptone and about 5 g of NaCl in about 1000 mL of sterile distilled water (pH-7)). For solid media, about 5% agar was used along with above mentioned composition. VSE and VRE were cultured in Brain Heart Infusion broth (Himedia). The bacterial samples were freeze dried and stored at −80° C. About 5 μL of these stocks were added to about 3 mL of the nutrient broth or Brain Heart Infusion broth and the culture was grown for about 6 h at about 37° C. prior to the experiments. This 6 h grown culture gives about 10^9 cfu/mL and this was determined by spread plating method. The 6 h grown culture was diluted to give effective cell concentration of about 10^5 cfu/mL which was then used for determining MIC. Compounds were serially diluted, in sterile water (2-fold dilution is employed) in a way that the working concentration was about 10 μM for MRSA, and VSE while for VRE, VISA and gram negative bacteria; it was about 100 μM. About 50 μL of these serial dilutions were added to the wells of 96 well plate followed by the addition of about 150 μL of bacterial solution. The plates were then incubated at about 37° C., 150 rpm in the incubator and O.D at 620 nm was recorded at an interval of about 24 h using TECAN (Infinite series, M200 pro) Plate Reader. Each concentration had triplicate values and the whole experiment was done at least twice and the MIC value was determined by taking the average of triplicate O.D. values for each concentration and plotting it against concentration. The data was then subjected to sigmoidal fitting.

For assay [2], the system named is MRSA. As to the kind of experiment: Resistance development study, serial passages. As to conditions: passaged at MIC/2. The assay is classed as cell-based, S. aureus. The protocol:
MIC values of the compound 4 and vancomycin were determined against MRSA as described above. For the next day MIC experiment, the bacterial dilution was made by using the bacteria from sub-MIC concentration of the compounds (at MIC/2). Then, the concentration of this bacteria was adjusted to ˜10^5 CFU/mL based on OD600 and subjected to next MIC assay. After a 24 h incubation period, again bacterial dilution was prepared by using the bacterial suspension from sub-MIC concentration of the compound (at MIC/2) and assayed for another MIC experiment. The process was repeated for 25 passages, and the fold increase in MIC was determined. […] Thus bacteria were unable in acquiring resistance to this compound and this emphasizes the longevity of such compounds in clinics.

Assay [3] has as its system VREs ATCC 51575. The assay is classed as in vivo, E. faecalis. The conditions noted are these: CD-1 mice, 12 mg/kg i.p. once daily, three doses. On the procedure:
Female CD-1 mice 6 to 8 weeks of age and weighing 20 to 25 g were used in this study. On day −7, all mice were injected intravenously (i.v.) with 0.2 mL of 0.2% λ-carrageenan to increase their susceptibility to bacterial renal infection. λ-Carrageenan increases mice susceptibility to renal infection following i.v. injection, possibly by forming a lattice structure in renal tissue and forming a support structure for bacterial attachment and growth. Bacterial strains that fail to cause renal infection in normal mice produce significant renal infections in λ-carrageenan-treated mice. On day 0, all mice were injected i.v. with 0.2 mL of the bacterial culture (VREs ATCC 51575, 10^8 CFU/mouse) through the tail vein. Four hours after the bacterial inoculation, mice were treated intraperitoneally (i.p.) with vancomycin, compound 4 and linezolid at 12 mg/kg of body weight or 0.2 mL of saline (0.9% NaCl) control (n=5). All the test compounds or saline were administered once daily for an additional two consecutive days for a total of three doses. All mice were sacrificed on day 3. Both kidneys from each mouse were removed aseptically and homogenized in 10 mL of saline. The dilutions of the homogenate were plated onto sheep blood agar plates, which were incubated overnight at about 37° C. The bacterial titer was expressed as log10 CFU/g of kidney weight.

Assay [4] relates to VRE. In words: Cell wall biosynthesis inhibition, UDPMurNAc-pp accumulation. The assay is classed as cell-based. On the procedure: In order to investigate whether the new installed properties of vancomycin derivative on inhibition of cell wall (peptidoglycan) biosynthesis against VRE, the accumulation of UDP-linked peptidoglycan precursor, UDP-N-acetyl-muramyl-pentadepsipeptide (UDPMurNAc-pp) was determined after treating the bacteria (VRE) with test compounds. Analysis of the cytoplasmic peptidoglycan nucleotide precursor pool was examined using VRE cells grown in 25 mL MHB. Cells were grown to an A600 nm (OD600) of 0.6 and incubated with 130 μg/mL of chloramphenicol for 15 min. Then, test compounds vancomycin (5 μM), compound 4 and physical mixture of compound 4 with zinc sulphate (5 μM) were added and incubated for another 60 min. Cells were collected and washed with sterile water to remove the antimicrobial agents and then extracted with boiling water. The cell extract was then centrifuged and the supernatant lyophilized. Then, the lyophilized powder was dissolved in 2 mL of water and pH was adjusted to 2.0 with 20% phosphoric acid. Now, the UDP-linked cell wall precursors in the solution were analyzed by RP-HPLC monitoring the UV absorbance peak at 260 nm wavelength and confirmed by HR-MS mass spectrometry.

Each structure is given as a SMILES string.

As for `CN[C@H](CC(C)C)C(=O)N[C@H]1C(=O)N[C@@H](CC(N)=O)C(=O)N[C@H]2C(=O)N[C@H]3C(=O)N[C@H](C(=O)N[C@H](C(=O)NCCCCCCN(Cc4ccccn4)Cc4ccccn4)c4cc(O)cc(O)c4-c4cc3ccc4O)[C@H](O)c3ccc(c(Cl)c3)Oc3cc2cc(c3O[C@H]2OC(CO)[C@H](O)C(O)C2O[C@H]2CC(C)(N)[C@H](O)C(C)O2)Oc2ccc(cc2Cl)[C@H]1O` (stereo partly drawn) [Compound 4, Dipicolyl-vancomycin conjugate], the MIC in assay [1] amounted to 0.3 µM. For the same compound, in assay [2], the “fold increase in MIC after 25 serial passages” value is on record as “remained the same”. The “reduction of bacterial titer from infected kidneys in comparison to vancomycin” value in assay [3] is recorded as “reduced bacterial titer from the infected kidneys more effectively”. The “CFU reduction compared to vehicle treated control (saline)” value in assay [3] (kidneys) was around 5.0 log10 CFU. The “cell wall biosynthesis inhibition (accumulation of UDPMurNAc-pp, peak at 260 nm)” value in assay [4] (60 min) is “greater cell wall biosynthesis inhibition compared to vancomycin”. Moreover, the “cell wall biosynthesis inhibition (accumulation of UDPMurNAc-pp)” value in assay [4] (in presence of Zn2+ (zinc sulphate 5 μM)) is “enhanced cell wall biosynthesis inhibition”.

(Values after patent publication US10626148B2, “Glycopeptides conjugates and uses thereof” (priority 2015, dated 2020).)
